Test results: patent publication US20230083012A1, “DIHYDROPYRIMIDINE DERIVATIVES AND USES THEREOF IN THE TREATMENT OF HBV INFECTION OR OF HBV-INDUCED DISEASES” (priority 2019, published 2023)

Columns and labels:
HBV = assay: Anti-HBV activity in HepG2.2.15 cells (HBV DNA in culture medium by qPCR); format: cell-based; conditions: Hepatitis B virus, HepG2.2.15, 144 h, HepG2.2.15 cells, 6 days treatment, HBV DNA in culture medium quantified by real-time PCR; read-out: EC50
Protocol: Example 2: Anti-Viral Assay in HepG2.2.15 Cells
(§1) HepG2.2.15 (the HepG2.2.15 cell line can be produced by transfection of the HepG2 cell line as described in Sells, Chen, and Acs 1987 (Proc. Natl. Acad. Sci. USA 84: 1005-1009), and the HepG2 cell line is available from ATCC® under number HIB-8065™)
(§2) HepG2.2.15 cells were plated into 96-well plate in 2% FBS culture medium at the density of 40,000 cells/well and 5,000 cells/well for HBV inhibitory activity and cytotoxicity determination, respectively. After incubation at 37° C., 5% CO2 overnight, cells were treated with medium containing compounds for 6 days with medium and compounds refreshed after 3 days of treatment. Each compound was tested in a 1:3 serial dilutions at 8 different concentrations in triplicate. The highest concentration of the compounds was 10 uM or 1 uM for anti-HBV activity assay and 100 uM for cytotoxicity determination.
The change of HBV DNA level induced by the compounds was assessed by quantitative real-time polymerase chain reaction (qPCR). Briefly, the HBV DNA in the culture medium was extracted using QIAamp 96 DNA Blood Kit according to the manual and then quantified by real-time PCR assay using the primers and probe in the table 2 below.
(§3) 2) DATA Analysis EC50 and CC50 values are calculated by the GRAPTIPAD PRISM software.

[1] = Cytotoxicity determination in HepG2.2.15 cells (CCK-8 cell viability); format: cell-based; conditions: human, 6 days treatment, CCK-8 assay, highest concentration 100 uM
Protocol: as §1, §2
Cell viability was determined by CCK-8 assay. After 6 days of compounds treatment, 20 μl CCK-8 reagents were added to each well of cytotoxicity assay plates. Cell plates were incubated at 37° C., 5% CO2 for 2.5 h. The absorbance at 450 nm wavelength and the absorbance at 630 nm wavelength as reference was measured.
as §3

Compound	EC50 (HBV) [nM]	CC50 at 6 days [1] [nM]
CCOC(=O)C1=C(CN2CC(F)(F)[C@H]3CN(C(C)C(=O)O)C[C@H]32)NC(c2nccs2)=N[C@H]1c1cccc(F)c1C (single isomer, unassigned) [Compound 14B]	102	67900
CCOC(=O)C1=C(CN2CC(F)(F)[C@H]3CN([C@H](C)C(=O)O)C[C@H]32)NC(c2nccs2)=N[C@H]1c1cccc(F)c1C (single isomer, unassigned) [Compound 14E]	62.3	85300
CCOC(=O)C1=C(CN2CC(F)(F)[C@H]3CN([C@@H](C)C(=O)O)C[C@H]32)NC(c2nccs2)=N[C@H]1c1cccc(F)c1C (single isomer, unassigned) [Compound 14F]	125	> 100000
CCOC(=O)C1=C(CN2CC(F)(F)[C@H]3CN(CC(C)C(=O)O)C[C@H]32)NC(c2nccs2)=N[C@H]1c1cccc(F)c1C (single isomer, unassigned) [Compound 15B]	27.2	> 100000
CCOC(=O)C1=C(CN2CC(F)(F)[C@H]3CN(C[C@@H](C)C(=O)O)C[C@H]32)NC(c2nccs2)=N[C@H]1c1cccc(F)c1C (single isomer, unassigned) [Compound 15E]	22.5	41700
CCOC(=O)C1=C(CN2CC(F)(F)[C@H]3CN(C[C@H](C)C(=O)O)C[C@H]32)NC(c2nccs2)=N[C@H]1c1cccc(F)c1C (single isomer, unassigned) [Compound 15F]	16.1	39000
CCOC(=O)C1=C(CN2CC(F)(F)[C@@H]3CN(CC4(C(=O)O)CC4)C[C@@H]32)NC(c2nccs2)=N[C@H]1c1cccc(F)c1C (single isomer, unassigned) [Compound 16B]	68.6	> 100000
CCOC(=O)C1=C(CN2CC(F)(F)[C@@H]3CN(CCC(C)(C)C(=O)O)C[C@@H]32)NC(c2nccs2)=N[C@H]1c1cccc(F)c1C (single isomer, unassigned) [Compound 17B]	123	72800
CCOC(=O)C1=C(CN2CC(F)(F)[C@H]3CN([C@H]4C[C@H](C(=O)O)C4)C[C@H]32)NC(c2nccs2)=N[C@H]1c1cccc(F)c1C (single isomer, unassigned) [Compound 18A]	61.1	66300
CCOC(=O)C1=C(CN2CC(F)(F)[C@H]3CN([C@H]4C[C@@H](C(=O)O)C4)C[C@H]32)NC(c2nccs2)=N[C@H]1c1cccc(F)c1C (single isomer, unassigned) [Compound 18B]	73.7	64200
COC(=O)C1=C(CN2CC(F)(F)C3CN(CC(C)(C)C(=O)O)CC32)NC(c2nccs2)=N[C@H]1c1cccc(F)c1C (single isomer, unassigned) [Compound 19B, 3-((cis)-3,3-difluoro-1-((6-(3-fluoro-2-methylphenyl)-5-(methoxycarbonyl)-2-(thiazol-2-yl)-3,6-dihydropyrimidin-4-yl)methyl)hexahydropyrrolo[3,4-b]pyrrol-5(1H)-yl)-2,2-dimethylpropanoic acid]	49.3	24200
COC(=O)C1=C(CN2CC(F)(F)[C@@H]3CN(CC(C)(C)C(=O)O)C[C@@H]32)NC(c2nccs2)=N[C@H]1c1ccc(F)cc1Cl (single isomer, unassigned) [Compound 20B, 3-((cis)-1-((6-(2-chloro-4-fluorophenyl)-5-(methoxycarbonyl)-2-(thiazol-2-yl)-3,6-dihydropyrimidin-4-yl)methyl)-3,3-difluorohexahydropyrrolo[3,4-b]pyrrol-5(1H)-yl)-2,2-dimethylpropanoic acid]	39.5	> 100000
COC(=O)C1=C(CN2CC(F)(F)[C@@H]3CN(CC(C)(C)C(=O)O)C[C@@H]32)NC(c2nccs2)=N[C@H]1c1ccc(F)c(F)c1Cl (single isomer, unassigned) [Compound 21B, 3-((cis)-1-((6-(2-chloro-3,4-difluorophenyl)-5-(methoxycarbonyl)-2-(thiazol-2-yl)-3,6-dihydropyrimidin-4-yl)methyl)-3,3-difluorohexahydropyrrolo[3,4-b]pyrrol-5(1H)-yl)-2,2-dimethylpropanoic acid]	22.7	97300
CCOC(=O)C1=C(CN2CC(F)(F)[C@@H]3CN(CC(C)(C)C(=O)O)C[C@@H]32)NC(c2nccs2)=N[C@H]1c1cccc(F)c1Cl (single isomer, unassigned) [Compound 22B, 3-((cis)-1-((6-(2-chloro-3-fluorophenyl)-5-(ethoxycarbonyl)-2-(thiazol-2-yl)-3,6-dihydropyrimidin-4-yl)methyl)-3,3-difluorohexahydropyrrolo[3,4-b]pyrrol-5(1H)-yl)-2,2-dimethylpropanoic acid]	8.9	70400
CCOC(=O)C1=C(CN2CC(F)(F)[C@@H]3CN(C(=O)CC(C)(C)C(=O)O)C[C@@H]32)NC(c2nccs2)=N[C@H]1c1cccc(F)c1C (single isomer, unassigned) [Compound 23B]	24	30200
CCOC(=O)C1=C(CN2CC[C@]3(F)CN(CC(C)(C)C(=O)O)C(=O)[C@H]23)NC(c2nccs2)=N[C@H]1c1cccc(F)c1C (single isomer, unassigned) [Compound 24A]	221	48500
CCOC(=O)C1=C(CN2CC[C@H]3C(=O)N(CC(C)(C)C(=O)O)C[C@H]32)NC(c2nccs2)=N[C@H]1c1cccc(F)c1C (single isomer, unassigned) [Compound 25A]	32.4	74500
CCOC(=O)C1=C(CN2CC(F)(F)[C@H]3[C@@H]2CCN3[C@H](C)C(=O)O)NC(c2nccs2)=N[C@H]1c1cccc(F)c1C (single isomer, unassigned) [Compound 26E]	5.2	28100
CCOC(=O)C1=C(CN2CC(F)(F)[C@H]3[C@@H]2CCN3[C@@H](C)C(=O)O)NC(c2nccs2)=N[C@H]1c1cccc(F)c1C (single isomer, unassigned) [Compound 26F]	14.8	41700
COC(=O)C1=C(CN2CC(F)(F)[C@@H]3C(=O)N(CC(C)(C)C(=O)O)C[C@@H]32)NC(c2nccs2)=N[C@H]1c1ccc(F)cc1Cl (single isomer, unassigned) [Compound 28, 3-((cis)-1-((6-(2-chloro-4-fluorophenyl)-5-(methoxycarbonyl)-2-(thiazol-2-yl)-3,6-dihydropyrimidin-4-yl)methyl)-3,3-difluoro-4-oxohexahydropyrrolo[3,4-b]pyrrol-5(1H)-yl)-2,2-dimethylpropanoic acid]	28.2	> 100000
COC(=O)C1=C(CN2CC(F)(F)[C@@H]3C(=O)N(CC(C)(C)C(=O)O)C[C@@H]32)NC(c2nccs2)=N[C@H]1c1cccc(F)c1Cl (single isomer, unassigned) [Compound 29, 3-((cis)-1-((6-(2-chloro-3-fluorophenyl)-5-(methoxycarbonyl)-2-(thiazol-2-yl)-3,6-dihydropyrimidin-4-yl)methyl)-3,3-difluoro-4-oxohexahydropyrrolo[3,4-b]pyrrol-5(1H)-yl)-2,2-dimethylpropanoic acid]	13.5	> 100000
CCOC(=O)C1=C(CN2CC(F)(F)[C@H]3[C@@H]2CCN3C(=O)[C@H]2CC[C@H](C(=O)O)CC2)NC(c2nccs2)=N[C@H]1c1cccc(F)c1C (single isomer, unassigned) [Compound 30]	81.3	28000
